Reference: publication PMC9851200, “Multiparameter phenotypic screening for endogenous TFEB and TFE3 translocation identifies novel chemical series modulating lysosome function” (Autophagy, 2022)

Legend:
Assay type in all cases: binding
[1] = target: kinases (KINOMEscan panel) (Homo sapiens, UniProt O43683); conditions: kinase BUB1; NEW KINOMEscan
[2] = target: T1, kinases (KINOMEscan panel) (Homo sapiens, UniProt O75385); conditions: NEW KINOMEscan
T1 sequence (O75385 1-1050): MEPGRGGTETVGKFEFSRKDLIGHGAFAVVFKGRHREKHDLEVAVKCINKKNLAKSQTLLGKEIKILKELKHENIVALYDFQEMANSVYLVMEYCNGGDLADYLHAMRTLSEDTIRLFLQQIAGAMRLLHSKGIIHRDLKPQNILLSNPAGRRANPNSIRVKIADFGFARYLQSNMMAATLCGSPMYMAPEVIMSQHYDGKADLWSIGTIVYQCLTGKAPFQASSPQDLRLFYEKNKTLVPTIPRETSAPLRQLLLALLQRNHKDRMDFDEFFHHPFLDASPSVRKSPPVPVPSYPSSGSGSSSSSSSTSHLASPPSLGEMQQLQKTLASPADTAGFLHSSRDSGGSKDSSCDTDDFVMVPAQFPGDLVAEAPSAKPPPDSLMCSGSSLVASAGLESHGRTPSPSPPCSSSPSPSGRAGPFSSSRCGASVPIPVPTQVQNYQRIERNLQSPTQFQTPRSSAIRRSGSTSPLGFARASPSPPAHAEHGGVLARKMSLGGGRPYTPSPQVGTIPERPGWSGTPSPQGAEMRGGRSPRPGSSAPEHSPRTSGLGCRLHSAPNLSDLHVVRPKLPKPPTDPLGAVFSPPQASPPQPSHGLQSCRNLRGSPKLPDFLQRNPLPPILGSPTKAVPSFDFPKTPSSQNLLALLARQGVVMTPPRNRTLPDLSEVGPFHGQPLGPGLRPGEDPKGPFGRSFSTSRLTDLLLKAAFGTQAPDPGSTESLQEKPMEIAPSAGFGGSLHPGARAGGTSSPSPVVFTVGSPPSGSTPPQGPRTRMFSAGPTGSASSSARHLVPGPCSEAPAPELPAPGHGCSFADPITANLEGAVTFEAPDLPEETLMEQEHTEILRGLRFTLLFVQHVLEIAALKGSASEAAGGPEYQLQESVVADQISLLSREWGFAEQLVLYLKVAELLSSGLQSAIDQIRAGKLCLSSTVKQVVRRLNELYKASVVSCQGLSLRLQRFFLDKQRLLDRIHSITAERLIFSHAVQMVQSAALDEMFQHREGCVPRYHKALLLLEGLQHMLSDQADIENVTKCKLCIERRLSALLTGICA

[3] = target: kinases (KINOMEscan panel) (Homo sapiens, UniProt O95819); conditions: MAP4K4; NEW KINOMEscan
Chain of kinases (KINOMEscan panel) (Homo sapiens, UniProt O95819) (O95819 whole entry): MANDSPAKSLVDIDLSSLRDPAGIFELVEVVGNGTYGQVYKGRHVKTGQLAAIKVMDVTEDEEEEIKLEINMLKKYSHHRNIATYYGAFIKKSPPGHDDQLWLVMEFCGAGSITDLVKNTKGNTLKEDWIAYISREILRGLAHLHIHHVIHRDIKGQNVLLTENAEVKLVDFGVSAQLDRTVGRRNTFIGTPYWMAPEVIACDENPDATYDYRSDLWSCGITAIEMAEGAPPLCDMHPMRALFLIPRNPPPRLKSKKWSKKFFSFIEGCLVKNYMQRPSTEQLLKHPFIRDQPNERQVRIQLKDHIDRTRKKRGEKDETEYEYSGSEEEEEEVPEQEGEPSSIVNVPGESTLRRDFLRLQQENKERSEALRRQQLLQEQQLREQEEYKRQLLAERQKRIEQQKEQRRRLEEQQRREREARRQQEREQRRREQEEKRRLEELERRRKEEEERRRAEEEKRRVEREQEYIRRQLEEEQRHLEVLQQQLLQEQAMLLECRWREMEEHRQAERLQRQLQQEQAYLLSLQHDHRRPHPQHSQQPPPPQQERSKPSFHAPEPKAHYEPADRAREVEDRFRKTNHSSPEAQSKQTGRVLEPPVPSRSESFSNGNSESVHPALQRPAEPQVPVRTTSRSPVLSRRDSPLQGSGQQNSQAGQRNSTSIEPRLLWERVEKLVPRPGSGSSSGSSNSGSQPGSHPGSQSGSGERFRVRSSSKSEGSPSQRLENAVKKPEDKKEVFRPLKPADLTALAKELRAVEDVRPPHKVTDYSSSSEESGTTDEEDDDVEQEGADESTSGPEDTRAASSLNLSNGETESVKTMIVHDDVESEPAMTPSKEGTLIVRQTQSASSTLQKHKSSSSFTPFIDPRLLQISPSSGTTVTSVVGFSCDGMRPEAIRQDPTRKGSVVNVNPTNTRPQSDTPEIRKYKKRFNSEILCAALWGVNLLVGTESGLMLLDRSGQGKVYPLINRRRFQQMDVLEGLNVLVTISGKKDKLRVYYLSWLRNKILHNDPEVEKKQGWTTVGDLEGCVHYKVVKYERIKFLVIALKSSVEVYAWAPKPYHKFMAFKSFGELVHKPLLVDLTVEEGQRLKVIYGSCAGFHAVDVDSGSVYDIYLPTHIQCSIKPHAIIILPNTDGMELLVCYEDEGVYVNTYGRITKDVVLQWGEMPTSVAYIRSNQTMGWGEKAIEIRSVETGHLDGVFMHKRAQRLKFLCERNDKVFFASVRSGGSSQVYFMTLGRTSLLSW

[4] = target: T2, kinases (KINOMEscan panel) (Homo sapiens, UniProt P57078); conditions: RIPK4; NEW KINOMEscan
T2 sequence (P57078 1-832): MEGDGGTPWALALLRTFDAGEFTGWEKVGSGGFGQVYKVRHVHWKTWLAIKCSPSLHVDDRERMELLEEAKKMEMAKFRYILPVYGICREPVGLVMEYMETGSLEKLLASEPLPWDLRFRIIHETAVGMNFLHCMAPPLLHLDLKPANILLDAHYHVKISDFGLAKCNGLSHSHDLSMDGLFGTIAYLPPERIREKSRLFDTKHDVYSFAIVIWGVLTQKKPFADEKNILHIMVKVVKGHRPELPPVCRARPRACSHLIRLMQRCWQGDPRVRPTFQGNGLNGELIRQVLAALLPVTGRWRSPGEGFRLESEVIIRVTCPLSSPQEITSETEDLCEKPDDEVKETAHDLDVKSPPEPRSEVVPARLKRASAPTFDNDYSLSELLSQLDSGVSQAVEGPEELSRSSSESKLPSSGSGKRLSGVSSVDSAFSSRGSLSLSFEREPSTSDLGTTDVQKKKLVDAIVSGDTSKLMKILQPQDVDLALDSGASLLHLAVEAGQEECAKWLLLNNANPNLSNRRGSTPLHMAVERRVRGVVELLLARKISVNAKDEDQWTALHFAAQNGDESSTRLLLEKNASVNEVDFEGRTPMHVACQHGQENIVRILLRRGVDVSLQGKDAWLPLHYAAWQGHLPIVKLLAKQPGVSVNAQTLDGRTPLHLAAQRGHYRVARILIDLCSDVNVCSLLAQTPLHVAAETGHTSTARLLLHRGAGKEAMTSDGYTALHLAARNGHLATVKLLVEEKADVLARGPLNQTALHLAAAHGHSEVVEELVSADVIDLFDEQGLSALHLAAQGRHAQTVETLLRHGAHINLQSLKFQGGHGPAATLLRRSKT

[5] = target: kinases (KINOMEscan panel) (Homo sapiens, UniProt Q16512); conditions: NEW KINOMEscan
Chain of kinases (KINOMEscan panel) (Homo sapiens, UniProt Q16512) (Q16512 whole entry): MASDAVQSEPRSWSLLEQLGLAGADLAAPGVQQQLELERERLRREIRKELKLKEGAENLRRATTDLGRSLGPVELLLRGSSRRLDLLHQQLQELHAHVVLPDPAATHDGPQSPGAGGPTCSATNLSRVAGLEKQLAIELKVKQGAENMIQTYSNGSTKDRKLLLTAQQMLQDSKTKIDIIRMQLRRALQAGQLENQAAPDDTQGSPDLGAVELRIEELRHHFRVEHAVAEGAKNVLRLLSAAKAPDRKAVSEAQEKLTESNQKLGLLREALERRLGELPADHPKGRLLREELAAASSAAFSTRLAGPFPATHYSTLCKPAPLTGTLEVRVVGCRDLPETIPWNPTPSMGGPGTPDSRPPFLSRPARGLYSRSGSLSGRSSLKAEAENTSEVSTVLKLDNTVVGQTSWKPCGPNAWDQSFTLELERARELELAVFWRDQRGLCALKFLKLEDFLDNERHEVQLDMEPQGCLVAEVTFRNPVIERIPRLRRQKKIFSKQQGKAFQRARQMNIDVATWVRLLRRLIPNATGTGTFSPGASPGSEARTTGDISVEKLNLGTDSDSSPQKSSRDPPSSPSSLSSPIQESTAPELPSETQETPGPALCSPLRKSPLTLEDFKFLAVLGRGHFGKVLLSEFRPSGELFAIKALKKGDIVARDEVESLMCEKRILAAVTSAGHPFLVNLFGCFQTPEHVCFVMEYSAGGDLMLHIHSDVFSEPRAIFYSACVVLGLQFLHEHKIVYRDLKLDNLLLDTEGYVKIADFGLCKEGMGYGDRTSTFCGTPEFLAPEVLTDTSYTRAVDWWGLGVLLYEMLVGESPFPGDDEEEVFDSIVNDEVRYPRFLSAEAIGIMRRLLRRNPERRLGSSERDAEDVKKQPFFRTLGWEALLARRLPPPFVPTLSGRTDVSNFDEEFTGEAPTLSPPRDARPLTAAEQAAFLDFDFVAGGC

[6] = target: T3, kinases (KINOMEscan panel) (Homo sapiens, UniProt Q8TF76); conditions: HASPIN; NEW KINOMEscan
T3 sequence (Q8TF76 1-798): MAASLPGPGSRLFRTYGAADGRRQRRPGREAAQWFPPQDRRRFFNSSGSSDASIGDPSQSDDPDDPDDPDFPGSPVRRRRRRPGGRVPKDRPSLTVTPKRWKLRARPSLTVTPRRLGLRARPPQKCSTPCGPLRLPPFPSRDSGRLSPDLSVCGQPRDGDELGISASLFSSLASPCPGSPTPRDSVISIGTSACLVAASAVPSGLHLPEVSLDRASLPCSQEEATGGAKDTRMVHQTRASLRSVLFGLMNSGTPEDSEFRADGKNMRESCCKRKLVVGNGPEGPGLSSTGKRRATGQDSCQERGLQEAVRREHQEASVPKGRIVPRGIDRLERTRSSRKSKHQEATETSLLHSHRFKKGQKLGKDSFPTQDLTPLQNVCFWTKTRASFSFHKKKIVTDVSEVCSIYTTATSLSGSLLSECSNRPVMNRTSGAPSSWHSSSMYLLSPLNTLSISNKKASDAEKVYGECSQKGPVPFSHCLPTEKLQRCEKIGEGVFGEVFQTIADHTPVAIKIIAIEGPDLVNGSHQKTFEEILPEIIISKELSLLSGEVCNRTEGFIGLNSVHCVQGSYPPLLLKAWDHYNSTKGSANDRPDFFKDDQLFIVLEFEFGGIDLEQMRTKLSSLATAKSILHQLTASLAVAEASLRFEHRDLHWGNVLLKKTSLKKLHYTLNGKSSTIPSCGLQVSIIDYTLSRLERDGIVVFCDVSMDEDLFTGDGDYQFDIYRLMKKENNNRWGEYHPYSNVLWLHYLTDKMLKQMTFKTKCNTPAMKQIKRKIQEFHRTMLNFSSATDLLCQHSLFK

Chain of kinases (KINOMEscan panel) (Homo sapiens, UniProt O43683) (O43683 whole entry): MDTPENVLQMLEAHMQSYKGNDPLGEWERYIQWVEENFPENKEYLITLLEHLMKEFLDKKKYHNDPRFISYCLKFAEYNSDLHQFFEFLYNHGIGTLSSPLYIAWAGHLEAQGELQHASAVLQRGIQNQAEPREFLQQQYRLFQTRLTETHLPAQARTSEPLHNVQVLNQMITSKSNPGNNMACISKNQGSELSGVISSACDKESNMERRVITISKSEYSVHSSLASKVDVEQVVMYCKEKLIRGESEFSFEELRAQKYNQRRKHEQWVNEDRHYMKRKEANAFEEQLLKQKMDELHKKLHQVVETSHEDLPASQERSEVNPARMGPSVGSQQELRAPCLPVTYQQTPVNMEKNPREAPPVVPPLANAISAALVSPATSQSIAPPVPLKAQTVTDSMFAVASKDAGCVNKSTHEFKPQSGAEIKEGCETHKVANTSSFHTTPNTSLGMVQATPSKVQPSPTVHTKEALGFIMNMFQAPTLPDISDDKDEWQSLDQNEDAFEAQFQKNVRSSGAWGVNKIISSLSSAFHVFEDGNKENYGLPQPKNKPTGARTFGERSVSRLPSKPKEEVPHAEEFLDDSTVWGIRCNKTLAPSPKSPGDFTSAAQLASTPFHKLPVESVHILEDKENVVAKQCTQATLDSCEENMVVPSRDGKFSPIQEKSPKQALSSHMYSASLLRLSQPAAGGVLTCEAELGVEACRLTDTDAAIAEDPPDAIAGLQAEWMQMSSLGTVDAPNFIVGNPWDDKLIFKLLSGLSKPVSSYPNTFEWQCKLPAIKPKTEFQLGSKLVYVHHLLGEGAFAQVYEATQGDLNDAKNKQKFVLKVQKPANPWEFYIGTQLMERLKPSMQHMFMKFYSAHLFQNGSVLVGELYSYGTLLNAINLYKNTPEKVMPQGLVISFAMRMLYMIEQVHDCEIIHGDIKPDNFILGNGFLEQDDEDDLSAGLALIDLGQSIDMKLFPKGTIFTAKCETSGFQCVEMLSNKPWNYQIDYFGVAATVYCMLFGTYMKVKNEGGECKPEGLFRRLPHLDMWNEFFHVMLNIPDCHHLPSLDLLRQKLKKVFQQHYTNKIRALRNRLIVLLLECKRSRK

Structure (SMILES)	KINOMEscan BUB1 [1]	KINOMEscan ULK1 [2]	KINOMEscan MAP4K4 [3]	KINOMEscan RIPK4 [4]	KINOMEscan PKN1 [5]	KINOMEscan HASPIN [6]
Cc1cccc(-c2nc(Nc3ccc4nn(C)cc4c3)c3ccccc3n2)n1 [NK167]	0	8	1	0	0	4
Cc1cccc(-c2nc(N(C)c3ccc4ncsc4c3)c3ccccc3n2)n1 [NK-161]	0	18	0	0	0	7
